Source: PMC13316224, “Expansion, functional diversification, and gene fusion events in the Ato protein family” (iScience, 2026)
Like-named read-outs stand apart in the source and are kept apart here.

Tests used:
Type in all cases: cell-based
[1] = target: T1, CaAto1 (Ato1-GFP) (Candida albicans, UniProt A0A1D8PHP8); test: […]lactate uptake in cells, against ato1 deletion strain; conditions: pH 6.0, 30 °C, 1-24 mM; H+ symport; labelled compound
T1 construct: gene FRP3; full length with C-terminal GFP at both native loci, in C. albicans cells (ATO1-GFP/ATO1-GFP)

[2] = target: T1, CaAto1 (Ato1-GFP); test: competition of […]acetate uptake in cells; conditions: read-out: % inhibition at 10 mM
[3] = target: T1, CaAto1 (Ato1-GFP); test: competition of […]acetate uptake in cells; conditions: 0.1 mM [14C]acetate, 10 mM competitor, pH 6.0, 30 °C, collective statement for most carboxylates, estimated from one concentration

T1 sequence (A0A1D8PHP8 entry or part of it): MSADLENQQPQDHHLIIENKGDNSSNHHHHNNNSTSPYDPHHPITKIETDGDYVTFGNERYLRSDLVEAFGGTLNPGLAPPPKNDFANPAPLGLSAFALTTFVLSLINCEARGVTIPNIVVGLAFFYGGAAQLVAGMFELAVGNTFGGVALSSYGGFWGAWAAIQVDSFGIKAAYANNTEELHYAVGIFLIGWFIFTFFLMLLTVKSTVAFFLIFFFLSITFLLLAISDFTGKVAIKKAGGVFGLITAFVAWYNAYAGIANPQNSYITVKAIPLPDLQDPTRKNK

Compound: C[C@H](O)C(=O)O [[14C]lactate]
- [14C]lactate uptake in cells, against ato1 deletion strain [1]: practically no lactate uptake was recorded in ato1Δ/Δ or ato1-10Δ/Δ strains

Compound: CCCC(=O)O [butyrate]
- inhibition at 10000 µM [2]: ~50%

Compound: O=C(O)CC(O)(CC(=O)O)C(=O)O [citrate]
- Ki [3]: > 10 mM

Compound: O=CO [formate]
- Ki [3]: > 10 mM

Compound: C[C@H](O)C(=O)O [lactate]
- Ki ([3]; read-out: Ki): > 10 mM

Compound: O=C(O)C[C@H](O)C(=O)O [malate]
- Ki [3]: > 10 mM

Compound: CC(=O)C(=O)O [pyruvate]
- Ki ([3]; read-out: Ki): > 10 mM

Compound: O=C(O)CCC(=O)O [succinate]
- Ki [3]: > 10 mM
